Where two headings read alike, the source gives them in different places.
Legend:
5-HT2B = 5-HT2B (Homo sapiens, UniProt P41595); assay: Calcium flux (FLIPR) assay, human 5-HT2B stably expressed in HEK-293 (Flp-In-293) cells; settings: human 5-HT2B in HEK-293 cells; for Emax, % 5-HT 5-HT2B: normalized to 5-HT; for EC50: EC50, nM 5-HT2B, NA = no activity at 10 μM
human 5-HT2C-INI = target: T1, human 5-HT2C-INI (Homo sapiens, UniProt P28335); assay: Calcium flux (FLIPR) assay, human 5-HT2C-INI stably expressed in HEK-293 (Flp-In-293) cells; settings: human 5-HT2C-INI in HEK-293 cells, FLIPR; for Emax, % 5-HT 5-HT2C: normalized to 5-HT; for EC50: NA = no activity at 10 μM
T1 sequence (P28335 33-458): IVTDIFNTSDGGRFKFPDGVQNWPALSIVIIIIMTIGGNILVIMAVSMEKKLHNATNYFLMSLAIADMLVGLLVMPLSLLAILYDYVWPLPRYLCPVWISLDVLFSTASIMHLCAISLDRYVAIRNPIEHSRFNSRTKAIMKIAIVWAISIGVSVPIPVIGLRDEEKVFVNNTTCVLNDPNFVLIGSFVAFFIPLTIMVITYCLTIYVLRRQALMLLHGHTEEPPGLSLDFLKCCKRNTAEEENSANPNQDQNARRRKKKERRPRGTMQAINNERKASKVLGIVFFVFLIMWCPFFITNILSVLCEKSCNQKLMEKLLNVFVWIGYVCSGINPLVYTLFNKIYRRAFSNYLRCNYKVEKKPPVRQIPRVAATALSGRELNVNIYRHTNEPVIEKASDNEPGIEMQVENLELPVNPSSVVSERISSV

5-HT2B, sequence (P41595 whole entry): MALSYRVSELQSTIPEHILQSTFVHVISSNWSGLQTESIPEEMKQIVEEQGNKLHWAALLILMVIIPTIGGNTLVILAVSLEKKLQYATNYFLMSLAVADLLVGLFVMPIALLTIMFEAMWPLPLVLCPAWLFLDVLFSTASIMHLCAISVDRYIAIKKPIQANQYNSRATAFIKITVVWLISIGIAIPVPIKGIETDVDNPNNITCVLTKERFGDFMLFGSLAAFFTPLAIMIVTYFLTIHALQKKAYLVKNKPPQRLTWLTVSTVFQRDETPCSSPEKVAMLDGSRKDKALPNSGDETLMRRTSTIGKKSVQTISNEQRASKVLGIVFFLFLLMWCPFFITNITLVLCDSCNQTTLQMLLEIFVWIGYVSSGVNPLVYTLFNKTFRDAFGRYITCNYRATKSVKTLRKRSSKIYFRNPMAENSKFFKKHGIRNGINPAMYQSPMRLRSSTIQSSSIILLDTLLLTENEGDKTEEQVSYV

SMILES | Emax, % 5-HT 5-HT2B (5-HT2B) | Emax, % 5-HT 5-HT2C (human 5-HT2C-INI) | EC50 (human 5-HT2C-INI; read-out: EC50, nM 5-HT2C) | EC50 (5-HT2B) | EC50 (human 5-HT2C-INI; EC50, nM 5-HT2C)
NCC1CC1c1c(OCCF)ccc(F)c1Cl (single isomer, unassigned; (-)) [(−)-Example 52, (−)-(2-(2-Chloro-3-fluoro-6-(2-fluoroethoxy)phenyl)cyclopropyl)methanamine] | (29%) % 5-HT | (80%) % 5-HT | 135 nM |  | 
C=CCOc1ccc(Cl)c(Cl)c1C1CC1CN (single isomer, unassigned; (+)) [(+)-Example 39] |  | (70%) % 5-HT | 165 nM |  | 
CC(C)Oc1ccc(Cl)cc1C1CC1CN (single isomer, unassigned; (-)) [(−)-Example 14, (−)-(2-(5-Chloro-2-isopropoxyphenyl)cyclopropyl)methanamine] | (19%) % 5-HT | (37%) % 5-HT |  | 5660 nM | 2480 nM
CCOc1ccc(F)c(Cl)c1C1CC1CN (single isomer, unassigned; (-)) [(−)-Example 51, (−)-(2-(2-Chloro-6-ethoxy-3-fluorophenyl)cyclopropyl)methanamine] | (33%) % 5-HT | (89%) % 5-HT |  | 1640 nM | 38 nM
CCCOc1ccc(F)cc1C1CC1CN (single isomer, unassigned; (-)) [(−)-Example 7, (−)-(2-(5-Fluoro-2-propoxyphenyl)cyclopropyl)methanamine] | (11%) % 5-HT | (80%) % 5-HT |  | 735 nM | 296 nM
NCC1CC1c1cc(Cl)c(F)cc1OCCF (single isomer, unassigned; (-)) [(−)-Example 4, (−)-(2-(5-Chloro-4-fluoro-2-(2-fluoroethoxy)phenyl)cyclopropyl)methanamine] | (26%) % 5-HT | (70%) % 5-HT |  | 2520 nM | 776 nM
C=CCOc1cc(F)c(Cl)cc1C1CC1CN (single isomer, unassigned; (-)) [(−)-Example 5, (−)-(2-(2-(Allyloxy)-5-chloro-4-fluorophenyl)cyclopropyl)methanamine] | (22%) % 5-HT | (77%) % 5-HT |  | 1960 nM | 308 nM
NCC1CC1c1c(OCCF)ccc(F)c1Cl (single isomer, unassigned; (+)) [(+)-Example 52, (+)-(2-(2-Chloro-3-fluoro-6-(2-fluoroethoxy)phenyl)cyclopropyl)methanamine] |  | (86%) % 5-HT |  |  | 49 nM
C#CCOc1cc(F)c(Cl)cc1C1CC1CN (single isomer, unassigned; (-)) [(−)-Example 6, (−)-(2-(5-Chloro-4-fluoro-2-(prop-2-yn-1-yloxy)phenyl)cyclopropyl)methanamine] | (33%) % 5-HT | (92%) % 5-HT |  | 4210 nM | 117 nM
COCCOc1ccc(Cl)cc1C1CC1CN (single isomer, unassigned; (+)) [(+)-Example 17, (+)-(2-(5-Chloro-2-(2-methoxyethoxy)phenyl)cyclopropyl)methanamine] |  | (8%) % 5-HT |  |  | 183 nM
C=C(C)COc1ccc(Cl)cc1C1CC1CN (single isomer, unassigned; (-)) [(−)-Example 24, (−)-(2-(5-Chloro-2-((2-methylallyl)oxy)phenyl)cyclopropyl)methanamine] | (39%) % 5-HT |  |  | 6090 nM | 
COCCOc1ccc(Cl)cc1C1CC1CN (single isomer, unassigned; (-)) [(−)-Example 17, (−)-(2-(5-Chloro-2-(2-methoxyethoxy)phenyl)cyclopropyl)methanamine] | (32%) % 5-HT | (45%) % 5-HT |  | 5300 nM | 667 nM
C=CCOc1cc(Cl)c(Cl)cc1C1CC1CN (single isomer, unassigned; (+)) [(+)-Example 35, (+)-(2-(2-(Allyloxy)-4,5-dichlorophenyl)cyclopropyl)methanamine] |  | (88%) % 5-HT |  |  | 61 nM
C=CCOc1ccc(F)c(F)c1C1CC1CN (single isomer, unassigned; (+)) [(+)-Example 49, (+)-(2-(6-(Allyloxy)-2,3-difluorophenyl)cyclopropyl)methanamine] | (35%) % 5-HT | (100%) % 5-HT |  | 3340 nM | 36 nM
NCC1CC1c1cc(Cl)c(F)cc1OCCF (single isomer, unassigned; (+)) [(+)-Example 4, (+)-(2-(5-Chloro-4-fluoro-2-(2-fluoroethoxy)phenyl)cyclopropyl)methanamine] | (39%) % 5-HT | (87%) % 5-HT |  | 506 nM | 24 nM
CCCOc1ccc(F)c(F)c1C1CC1CN (single isomer, unassigned; (-)) [(−)-Example 48, (−)-(2-(2,3-Difluoro-6-propoxyphenyl)cyclopropyl)methanamine] |  | (68%) % 5-HT |  |  | 357 nM
CSCCOc1ccc(Cl)cc1C1CC1CN (single isomer, unassigned; (-)) [(−)-Example 18, (−)-(2-(5-Chloro-2-(2-(methylthio)ethoxy)phenyl)cyclopropyl)methanamine] |  | (11%) % 5-HT |  |  | 1760 nM
NCC1CC1c1c(OCCF)ccc(F)c1F (single isomer, unassigned; (+)) [(+)-Example 47, (+)-(2-(2,3-Difluoro-6-(2-fluoroethoxy)phenyl)cyclopropyl)methanamine] |  | (95%) % 5-HT |  |  | 25 nM
CSCCOc1ccc(Cl)cc1C1CC1CN (single isomer, unassigned; (+)) [(+)-Example 18, (+)-(2-(5-Chloro-2-(2-(methylthio)ethoxy)phenyl)cyclopropyl)methanamine] |  | (24%) % 5-HT |  |  | 244 nM
C=CCOc1ccc(F)c(Cl)c1C1CC1CN (single isomer, unassigned; (+)) [(+)-Example 53, (+)-(2-(6-(Allyloxy)-2-chloro-3-fluorophenyl)cyclopropyl)methanamine] |  | (92% 5-HT |  |  | 96 nM
C=C(F)COc1ccc(F)cc1C1CC1CN (single isomer, unassigned; (-)) [(−)-Example 9, (−)-(2-(5-Fluoro-2-((2-fluoroallyl)oxy)phenyl)cyclopropyl)methanamine] |  | (62%) % 5-HT |  |  | 985 nM
C=C(F)COc1ccc(Cl)cc1C1CC1CN (single isomer, unassigned; (-)) [(−)-Example 25, (−)-(2-(5-Chloro-2-((2-fluoroallyl)oxy)phenyl)cyclopropyl)methanamine] | (33%) % 5-HT |  |  | 6880 nM | 
NCC1CC1c1cc(F)c(F)cc1OCCF (single isomer, unassigned; (-)) [(−)-Example 42, (−)-(2-(4,5-Difluoro-2-(2-fluoroethoxy)phenyl)cyclopropyl)methanamine] |  | (73%) % 5-HT |  |  | 772 nM
NCC1CC1c1cc(F)c(F)cc1OCCF (single isomer, unassigned; (+)) [(+)-Example 42, (+)-(2-(4,5-Difluoro-2-(2-fluoroethoxy)phenyl)cyclopropyl)methanamine] |  | (95%) % 5-HT |  |  | 7.3 nM

— patent publication US10407381B2 (THE BOARD OF TRUSTEES OF THE UNIVERSITY OF ILLINOIS, priority 2015, dated 2019)
